Assay results from ChEMBL document CHEMBL1641458, “A journey from benzanilides to dithiobenzanilides: Synthesis of selective spasmolytic compounds” (Bioorg Med Chem, 2011).

Experiments:
[1] = Antispasmodic activity in guinea pig arteria pulmonalis ring assessed as inhibition of 60 mM KCl-induced contraction after 45 mins; assay type: functional, Cavia porcellus
[2] = system: Ileum; test: tissue or blood; assay type: functional, tissue-based; conditions: Cavia porcellus, 0.75 h
[3] = system: Aorta; test: tissue or blood; assay type: functional, tissue-based; conditions: Cavia porcellus, 0.75 h

Measured: IC50

COc1cc(C(=S)Nc2cccc(NC(=S)c3cc(OC)c(OC)c(OC)c3)c2)cc(OC)c1OC
> 100 µM: [1] | [2] | [3]
